The source made the active and inactive calls. The rule behind the calls is not given here.
Experiments:
[1] = biological target: T1, Ribonucleoside-diphosphate reductase large subunit (Homo sapiens, UniProt P23921); test: Inhibition of human RRM1 expressed in Escherichia coli BL21-codon plus(DE3)-RIL using [14C]-ADP as substrate after 3 mins by liquid scintillation counting method
T1 sequence (P23921 whole entry): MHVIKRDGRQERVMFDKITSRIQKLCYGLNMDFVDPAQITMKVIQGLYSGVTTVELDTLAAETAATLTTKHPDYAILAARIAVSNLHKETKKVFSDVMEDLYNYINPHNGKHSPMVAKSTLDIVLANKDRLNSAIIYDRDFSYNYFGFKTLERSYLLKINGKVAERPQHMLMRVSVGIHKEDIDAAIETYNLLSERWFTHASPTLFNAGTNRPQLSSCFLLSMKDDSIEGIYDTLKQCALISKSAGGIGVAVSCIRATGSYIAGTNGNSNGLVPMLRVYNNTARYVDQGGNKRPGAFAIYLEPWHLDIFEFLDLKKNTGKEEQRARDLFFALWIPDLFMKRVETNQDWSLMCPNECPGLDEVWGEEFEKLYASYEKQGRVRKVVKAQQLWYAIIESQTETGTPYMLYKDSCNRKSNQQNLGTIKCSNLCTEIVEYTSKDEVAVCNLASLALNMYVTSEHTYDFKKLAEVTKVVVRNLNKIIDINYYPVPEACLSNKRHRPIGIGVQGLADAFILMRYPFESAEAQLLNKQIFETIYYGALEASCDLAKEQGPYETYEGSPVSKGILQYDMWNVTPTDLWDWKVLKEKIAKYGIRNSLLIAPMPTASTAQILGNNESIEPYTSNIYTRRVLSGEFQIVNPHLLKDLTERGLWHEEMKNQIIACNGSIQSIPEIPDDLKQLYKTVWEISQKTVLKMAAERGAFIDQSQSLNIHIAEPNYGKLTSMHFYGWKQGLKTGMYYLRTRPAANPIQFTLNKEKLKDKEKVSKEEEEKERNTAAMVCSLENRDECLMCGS

MDA-MB-231 [2] = test: cells; details: Homo sapiens, MDA-MB-231, 72 h
[3] = Metal chelating activity in pH 7 ammonium acetate buffer assessed as Fe3+-compound complex formation at compound to metal ratio of 1:1 to 1:50 under anaerobic condition by UV spectroscopic method; format: functional
[4] = Metal chelating activity in pH 7 ammonium acetate buffer assessed as Mg2+-compound complex formation at compound to metal ratio of 1:1 to 1:10 under anaerobic condition by UV spectroscopic method; format: functional
MDA-MB-231 [5] = test: cells; details: Homo sapiens, MDA-MB-231, 120 h
[6] = biological target: T2, Ribonucleoside-diphosphate reductase subunit M2 (Homo sapiens, UniProt P31350); test: Inhibition of human RRM2 expressed in Escherichia coli BL21-codon plus(DE3) using [14C]-ADP as substrate after 3 mins by liquid scintillation counting method
T2 sequence (P31350 whole entry): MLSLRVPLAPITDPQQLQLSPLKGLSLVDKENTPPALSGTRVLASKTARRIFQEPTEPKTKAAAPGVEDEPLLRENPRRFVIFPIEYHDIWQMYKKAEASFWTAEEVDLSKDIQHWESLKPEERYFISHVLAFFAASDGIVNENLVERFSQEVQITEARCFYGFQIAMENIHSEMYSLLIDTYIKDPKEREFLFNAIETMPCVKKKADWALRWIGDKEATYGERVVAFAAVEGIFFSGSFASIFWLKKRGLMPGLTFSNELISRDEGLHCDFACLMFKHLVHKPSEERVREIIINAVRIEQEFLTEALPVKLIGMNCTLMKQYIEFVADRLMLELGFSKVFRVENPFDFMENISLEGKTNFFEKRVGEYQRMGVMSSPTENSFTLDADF

MDA-MB-231 [7] = test: cells; details: Homo sapiens, MDA-MB-231, 120 h; remark: listed apart in the source
MDA-MB-231 [8] = test: cells; details: Homo sapiens, MDA-MB-231, 120 h; remark: listed apart in the source
MDA-MB-231 [9] = test: cells; details: Homo sapiens, MDA-MB-231, 120 h; remark: listed apart in the source
[10] = Metal chelating activity in pH 7 ammonium acetate buffer assessed as Fe2+-compound complex formation at compound to metal ratio of 1:4 to 1:50 under anaerobic condition by UV spectroscopic method; format: functional

With `O=S(=O)(Cc1ccccc1)N/N=C/c1c(O)ccc2ccccc12` the IC50 [1] was 131 µM.
Work on `Nc1ccn([C@@H]2O[C@H](CO)[C@@H](O)C2(F)F)c(=O)n1` [GEMCITABINE] yielded an IC50 (MDA-MB-231 [2]) of 0.03 to 0.1 µM.
`COc1cc(/C=N/N=C/c2c(O)ccc3ccccc23)ccc1O` showed an IC50 [1] of 687 µM.
Compound `O=C(N/N=C/c1c(O)ccc2ccccc12)OCc1ccccc1` has an IC50 [1] of 120 µM.
In the case of `O=C(N/N=C/c1c(O)ccc2ccccc12)c1ccccc1O`, the Activity [3] is reported as “inactive”, the Activity [4] is reported as “inactive” and the IC50 (MDA-MB-231 [5]) is reported as 1.43 µM. It also gave an IC50 [6] of 123 µM, an IC50 (MDA-MB-231 [7]) of 1.49 µM and an IC50 (MDA-MB-231 [8]) of 0.347 µM. The IC50 (MDA-MB-231 [9]) was 1.94 µM and the Activity [10] was “Active”.
Work on `NC(=S)N/N=C/c1ncccc1N` [TRIAPINE] yielded an IC50 [6] of 0.185 µM.

Source: ChEMBL document CHEMBL4024782, “Structure-Guided Synthesis and Mechanistic Studies Reveal Sweetspots on Naphthyl Salicyl Hydrazone Scaffold as Non-Nucleosidic Competitive, Reversible Inhibitors of Human Ribonucleotide Reductase” (J Med Chem, 2018)
